# Entries after “also recorded” stand apart in the source; their conditions may differ. Where two headings read alike, the source gives them in different places.
# Assays:
# A. rubens [1] = experiment: Righting behaviour following 4-week starvation; format: in vivo, Asterias rubens
# Procedure: To examine the specificity of the effects of asterotocin on starfish righting behaviour, an experiment was performed where the righting time of starfish (5.5–9.6 cm in diameter; starved for 4 weeks prior to testing) was measured before injection (n = 60; pooled from the three treatment groups) and after injection with 5 μl 10^−3 M asterotocin (n = 20) or 5 μl 10^−3 M S2 (n = 20) or 5 μl distilled water (n = 20). The time taken to right in seconds as well as the percentage difference between righting with and without injection was calculated. The percentage time difference between righting with and without injection in water-injected, asterotocin-injected and S2-injected animals was determined and plotted as a separated box and whiskers graph in Prism 6 (GraphPad 6). The effect of neuropeptides on righting behaviour was analysed statistically using the Mann-Whitney U test or a one-way ANOVA test with a post hoc Dunnett’s multiple comparisons test.
# [2] = test system: cardiac stomach preparations from A. rubens; experiment: Relaxation of in vitro cardiac stomach preparations; parameters: species or system Asterias rubens; conditions: 10^−7 M, KCl pre-contraction
# Procedure: To investigate if asterotocin affects muscle contractility in A. rubens, synthetic asterotocin (custom synthesised by PPR Ltd., Fareham, Hampshire, UK) was tested on three in vitro preparations: the cardiac stomach, apical muscle and tube feet. These three preparations have been used to examine the effects of other neuropeptides, and the methods employed have been described in detail previously. […] Therefore, the effects of asterotocin on cardiac stomach and apical muscle preparations were examined in more detail.
# Cardiac stomach preparations from 16 starfish (8–13.5 cm in diameter) were incubated at 11 °C in an aerated organ bath containing artificial seawater with 3 × 10^−2 M added KCl. This induces sustained contraction of the cardiac stomach, which facilitates recording of the effects of neuropeptides that act as muscle relaxants. The contractile state of preparations was monitored using a high-grade isotonic transducer (model 60-3001; Harvard Apparatus, Cambridge, UK) connected to a Goerz SE 120 chart recorder (Recorderlab, Sutton, Surrey, UK) or using a high-grade isotonic transducer (MLT0015; ADInstruments Ltd., Oxford, UK) connected to data acquisition hardware (PowerLab 2/26, ADInstruments Ltd.) via a bridge amplifier (FE221 Bridge Amp, ADInstruments Ltd.). The output from the PowerLab was recorded using LabChart (v8.0.7) software installed on a laptop computer (Lenovo E540, Windows 7 Professional). To obtain representative images of the effects of asterotocin, traces were exported from LabChart into Adobe Photoshop and the function ‘Select and Mask’ was utilised to remove the background grid pattern.
# The percentage relaxation at each concentration was calculated relative to the maximal relaxing effect produced by asterotocin in each preparation. […] For these experiments, the effect of 10^−7 M S2 was defined as 100%, and the effect of 10^−7 M asterotocin was calculated as a percentage of the effect of 10^−7 M S2. The relaxing effects of asterotocin and S2 on cardiac stomach preparations were analysed statistically using the Mann-Whitney U test.
# [3] = test system: cardiac stomach preparations from A. rubens; conditions: in vitro; cited from earlier work
# Procedure: Therefore, it was of interest here to investigate the effects of asterotocin on muscle preparations from A. rubens. […] The percentage relaxation at each concentration was calculated relative to the maximal relaxing effect produced by asterotocin in each preparation. To enable the assessment of the magnitude of the relaxing effect of asterotocin on cardiac stomach, experiments were performed to compare the effect asterotocin with the effect of the neuropeptide SALMFamide-2 (S2; […]-NH2), which has been shown previously to cause relax ...
# A. rubens [4] = conditions: cited from earlier work
# Excerpt: Starfish feed by firstly prying apart the bivalve shells of prey (e.g. mussels) with their tube feet and then […] cardiac stomach out of their mouth and over the exposed digestible soft tissues. In order for the cardiac stomach to be everted, it must be in a relaxed state, and therefore, neuropeptides that cause cardiac stomach relaxation in vitro are potential mediators of eversion in vivo.
# A. rubens [5] = experiment: In vivo cardiac stomach eversion, dose dependence; parameters: species or system Asterias rubens; conditions: 10 μl of 10^−3 M S2 into perivisceral coelom; n = 5
# Procedure: During feeding in A. rubens, the cardiac stomach is everted out of the mouth over the digestible soft tissue of prey (e.g. mussels), and to accomplish this, the cardiac stomach must be relaxed. […] First, a pilot experiment was performed using 30 starfish (diameter 6.4–7.5 cm) that had been starved for 1 week to normalise their physiological status. Then animals were injected with different doses of asterotocin (10 μl of 10^−6–10^−3 M; n = 5 for each dose) or with 10 μl of water (negative control; n = 5) or with 10 μl of 10^−3 M S2 (positive control; n = 5). The animals were injected at a site located in the aboral body wall of an arm proximal to the junction with the central disc and adjacent to the madreporite. Care was taken to ensure that the tip of a Hamilton syringe used for injections was pushed through the body wall into the perivisceral coelom but not too deep so as to avoid injecting into the digestive organs. The doses of asterotocin injected were informed by our analysis of the volume of the perivisceral coelomic fluid in A. rubens. […] Following injection, the starfish were placed in a glass vessel containing seawater so that the mouth of the animal could be observed from below.
# A. rubens [6] = experiment: Body posture / arm flexion after injection; format: in vivo, Asterias rubens; conditions: S2, compared with asterotocin
# [7] = test system: A. rubens VP/OT-type receptor; experiment: Ca2+-induced luminescence in CHO-K1/G5A cells expressing the A. rubens VP/OT-type receptor and Gα16; format: cell-based, Asterias rubens; conditions: 10^−4 M; Wilcoxon signed-rank test vs basal media; n = 9
# Excerpt: A pBluescript SKII (+) vector containing the A. rubens VP/OT-type receptor cDNA as an insert (see above) was used as a template to amplify by PCR the open reading frame of the VP/OT-type receptor. To accomplish this, the oligonucleotides 5′-ggatccCACCATGACGCCCTC-3′ (upstream) and 5′-cccgggCTACATGTGAGCGGAAGCA-3′ (downstream) were used as primers and the PCR product was subcloned into the eukaryotic expression vector pcDNA 3.1+, which had been cut with the restriction enzymes BamHI and […]. For the upstream primer, a partial Kozak translation initiation sequence (CACC) was introduced before the start codon to optimise the initiation of translation.
# For this assay, Chinese hamster ovary (CHO-K1) cells stably expressing the Ca^2+-sensitive bioluminescent GFP-aequorin fusion protein—G5A (CHO-K1/G5A cells) are co-transfected with plasmids containing a G-protein coupled receptor cDNA insert and plasmids containing an insert encoding the promiscuous G-protein Gα16. If a candidate ligand activates the expressed receptor, the promiscuous Gα16 protein triggers the activation of the IP3 signalling pathway, causing an increase in intracellular Ca^2+ and luminescence. […] Asterotocin at concentrations ranging from 10^−4 to 10^−12 M (n = 3) was pipetted into the wells of clear-bottomed 96-well plates (Sigma-Aldrich), then a FLUOstar Omega Plate Reader (BMG LABTECH) was used to inject a fixed amount of transfected CHO-K1 cells into each well sequentially, and luminescence was measured for a 35-s period after injection. Luminescence measurements were normalised to the maximum response obtained in each experiment (100%) and the response obtained with the vehicle media (0%). […] The half maximal effective concentration (EC50) was calculated from the dose-response curve in Prism 6.0c. […] A Wilcoxon signed-rank test was performed to compare luminescence of cells exposed to asterotocin, vasopressin, oxytocin and NGFFYamide (at 10^−4 M) with luminescence of cells in basal media (control).
# octopus rectum = conditions: in vitro; cited from earlier work
# Excerpt: What about in the protostome branch of the Bilateria? […] In the cephalopod mollusc Octopus vulgaris, the VP/OT-type signalling system has been characterised in detail and comprises two VP/OT-type neuropeptides, octopressin (OP) and cephalotocin (CT), and three cognate receptors (OPR, CTR1, CTR2). Furthermore, OP is expressed in the regions of the octopus nervous system involved in the control o ...
# insects = conditions: cited from earlier work
# Excerpt: Thus, the evolutionary origin of at least 30 neuropeptide families (including VP/OT-type) can be traced back to the bilaterian common ancestor of deuterostomes (vertebrates and invertebrate chordates, hemichordates, echinoderms) and protostomes (e.g. arthropods, nematodes, molluscs, annelids). Definitive evidence of the antiquity of VP/OT-type neuropeptides was first obtained with the purification and sequencing of VP/OT-type neuropeptides from insect and molluscan species [[8], ...
# mammals [8] = conditions: cited from earlier work
# Excerpt: Physiological processes and behaviour are controlled and regulated by a huge variety of neuronally secreted peptide signalling molecules (neuropeptides), which typically exert their effects on target cells by binding to cognate G-protein coupled receptors (GPCRs). Amongst the most intensely studied neuropeptides are vasopressin (VP) and oxytocin (OT). VP and OT are structurally related neuropeptides that were originally discovered based on their peripheral actions as pituitary hormones in mammals. VP is a cyclic and amidated nonapeptide (CYFQNCPRG-NH2; with a disulphide bridge betwee ...
# mammals [9] = conditions: cited from earlier work; remark: listed apart in the source
# Excerpt: Our discovery that asterotocin has such striking feeding-related effects in starfish provides a basis to examine if VP/OT-type neuropeptides are likewise involved in the regulation of feeding-associated processes in other taxa. Currently, little is known about the physiological roles of VP/OT-type neuropeptides in other echinoderms. […] This effect of echinotocin as a muscle contractant is consistent with the myoexcitatory eff ...
substance,measurement,setting,value
"SGPYSFNSGLTF-NH2 [S2, SALMFamide neuropeptide S2 (…-NH2)]","significance of righting time vs water-injected, in words","A. rubens [1]; 5 μl of 10^−3 M S2, n = 20",not significantly different
same,mean righting time,"A. rubens [1]; 5 μl of 10^−3 M, mean ± SEM, n = 20, water 341 ± 59 s, non-injected 345 ± 35 s",312 ± 40 s
same,mean percentage righting time difference with vs without injection,"A. rubens [1]; 5 μl of 10^−3 M, n = 20, water − 1.8 ± 13%",15 ± 12%
same,"relaxing effect, S2 effect defined as 100%",[2]; replicate 1,100%
same,"relaxing effect, S2 effect defined as 100%",[2]; replicate 2,100%
same,"relaxing effect, S2 effect defined as 100%",[2]; replicate 3,100%
same,"relaxing effect, S2 effect defined as 100%",[2]; replicate 4,100%
same,"relaxing effect, S2 effect defined as 100%",[2]; replicate 5,100%
same,"effect on cardiac stomach preparations, in words",[3],acts as a relaxant of cardiac stomach preparations; also recorded: cause relaxation of A. rubens cardiac stomach preparations in vitro
same,"cardiac stomach eversion, in words (earlier work)",A. rubens [4]; 100 μl of 10^−3 M into perivisceral coelom,triggers cardiac stomach eversion
same,"cardiac stomach eversion, in words (earlier work)",A. rubens [4]; injected in vivo,induces cardiac stomach eversion when injected in vivo
same,"cardiac stomach eversion, in words",A. rubens [5],cardiac stomach eversion was not observed; also recorded: stomach eversion was not observed in any of the animals
same,"posture change, in words",A. rubens [6],does not induce the changes in posture
NGFFYamide,"receptor activation at highest concentration tested, in words",[7],did not cause significant receptor activation; also recorded: not significantly higher than the basal media control
octopressin,"effect on rectum, in words",octopus rectum,myoexcitatory effects on in vitro preparations of the octopus rectum
inotocin,"role in urine production, in words",insects,VP-like role in regulating urine production
"CYFQNCPRG-NH2 (disulfide) [vasopressin, human vasopressin; cyclic amidated nonapeptide (…-NH2)]","receptor activation at highest concentration tested, in words",[7],did not cause significant receptor activation; also recorded: not significantly higher than the basal media control
same,"blood pressure, in words",mammals [8],increases blood pressure
same,"diuresis, in words",mammals [8],acts as an antidiuretic
"CYIQNCPLG-NH2 (disulfide) [oxytocin, human oxytocin (…-NH2)]","receptor activation at highest concentration tested, in words",[7],did not cause significant receptor activation; also recorded: not significantly higher than the basal media control
same,"effect on feeding, in words",mammals [9],inhibits feeding
same,"uterine contraction and lactation, in words",mammals [8],causes uterine contraction and lactation
